# In PubChem BioAssay (NCI):
#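 Dose response: 5 concentrations. Exposure: 48 h. Format: 96-well plates. Endpoint: linear interpolation; highest concentration if not reached. GI50 marks 50% less growth. At the TGI there is no net growth.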
# What was measured:
# Experiment in all cases: NCI anticancer screen, dose series, 48 h
# KM12 colon = tested on: KM12 colon
# MOLT-4 leukemia = tested on: MOLT-4 leukemia
# OVCAR-8 ovarian = tested on: OVCAR-8 ovarian
# SK-MEL-2 melanoma = tested on: SK-MEL-2 melanoma
# SK-MEL-5 melanoma = tested on: SK-MEL-5 melanoma
# SNB-19 CNS = tested on: SNB-19 CNS
# SW-620 colon = tested on: SW-620 colon
# TK-10 renal = tested on: TK-10 renal
# UACC-257 melanoma = tested on: UACC-257 melanoma
# A549 NSCLC = tested on: A549 NSCLC
# SF-268 CNS = tested on: SF-268 CNS
Structure (SMILES),TGI (KM12 colon) [µM],TGI (MOLT-4 leukemia) [µM],TGI (OVCAR-8 ovarian) [µM],TGI (SK-MEL-2 melanoma) [µM],TGI (SK-MEL-5 melanoma) [µM],TGI (SNB-19 CNS) [µM],TGI (SW-620 colon) [µM],TGI (TK-10 renal) [µM],TGI (UACC-257 melanoma) [µM],TGI (A549 NSCLC) [µM],TGI (SF-268 CNS) [µM],GI50 (KM12 colon) [nM],GI50 (MOLT-4 leukemia) [nM],GI50 (SF-268 CNS) [nM],GI50 (SK-MEL-2 melanoma) [nM],GI50 (SK-MEL-5 melanoma) [nM],GI50 (SNB-19 CNS) [nM],GI50 (SW-620 colon) [nM],GI50 (TK-10 renal) [nM],GI50 (UACC-257 melanoma) [nM]
CC(C)(C)[Si](C)(C)OCC1OC(n2cnc3c(N)ncnc32)CC1O (stereo unspecified),> 100,> 100,> 100,> 100,> 100,> 100,> 100,> 100,> 100,,,,,,,,,,,
Cc1cc(C)n(-c2nsc3ccccc23)n1,> 100,> 100,> 100,> 100,> 100,> 100,> 100,> 100,> 100,> 100,> 100,,,,,,,,,
CCN(CC)CCNc1ccc2nnn3c4ccc(C)cc4c(=O)c1c23,16.9,12.2,20.9,27.1,22.5,27.4,17.2,28.8,26.5,19.3,22.3,,,,,,,,,
N#CN=[N+]([O-])c1ccc(C(=O)O)cc1,> 100,,37.1,33.6,,29.8,36.6,31.4,32.7,> 100,35.5,,,,,,,,,
Fc1ccc(C2CC(c3cccc(Nc4ccncc4)c3)=NN2c2ccc(Cl)cc2)cc1 (stereo unspecified),3.33,5.33,,3.73,3.16,3.07,3.09,3.37,4.15,,3.45,1680,2120,1750,1890,1760,1650,1640,1740,2000
O=C1CSC(=S)N1,> 100,> 100,> 100,> 100,> 100,> 100,> 100,> 100,> 100,> 100,> 100,,,,,,,,,
CC(=O)c1ccc2c(c1)c1c(C)c3c[n+](C)ccc3c(C)c1n2C,> 100,20.8,39.9,22.6,> 47.8,5.74,> 85.4,,36.2,> 100,3.52,,,,,,,,,
Cc1ccc2c(c1)C(=O)N(N(C)C)CC(=O)N2,> 100,> 100,> 100,> 100,> 100,> 100,> 100,> 100,> 100,> 100,> 100,,,,,,,,,
NCCCOc1ccc([N+](=O)[O-])cc1Cl,> 100,> 100,> 100,> 100,> 100,> 100,> 100,> 100,> 100,> 100,> 100,,,,,,,,,
Cc1cc2c(cc1C)OC(=O)CC2,> 100,> 100,> 100,> 100,> 100,,> 100,> 100,> 100,> 100,> 100,,,,,,,,,
O=C1NC2=C(CCCC/C2=N\O)C12CCCCC2,> 100,> 100,,,,> 100,> 100,> 100,> 100,> 100,> 100,,,,,,,,,
CC(=O)OCC1=C(C(=O)O)N2C(=O)C(NC(=O)CSc3ccncc3)C2SC1 (stereo unspecified),> 100,> 100,> 100,> 100,> 100,> 100,> 100,,> 100,> 100,> 100,,,,,,,,,
Brc1ccc(C2CC(c3cccc4ccccc34)=Nc3ccccc3S2)cc1 (stereo unspecified),> 100,> 100,> 100,> 100,> 100,> 100,34,> 100,> 100,> 100,> 100,,,,,,,,,
CCOC(=O)NC(Nc1ncccn1)(C(=O)OCC)C(F)(F)F (stereo unspecified),> 100,> 100,> 100,> 100,> 100,> 100,> 100,> 100,> 100,> 100,> 100,,,,,,,,,
